The supplement of paper PMC10307832

Experiments:
Assay in all cases: relative viability (nuclei count vs DMSO), 5 days (fraction); higher = more cells survive
NVP-TAE684 + OSI-027 = compound: COc1cc(N2CCC(N3CCN(C)CC3)CC2)ccc1Nc1ncc(Cl)c(Nc2ccccc2S(=O)(=O)C(C)C)n1 [NVP-TAE684] + COc1cccc2cc(-c3nc([C@H]4CC[C@H](C(=O)O)CC4)n4ncnc(N)c34)[nH]c12 [OSI-027] (partner 0.5 µM)
Procedure, shortened: (§1)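 Five library-drug doses in √10 steps were combined with a fixed anchor-drug dose, or a single drug was given alone, by pin tool to lung cancer cell lines in 1536-well plates the day after seeding. Nuclei were stained and counted after 5 days. Relative viability is the nuclei count in treated wells over that in vehicle wells, taken as the median of duplicate plates.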

NVP-TAE684 + Trametinib = compound: COc1cc(N2CCC(N3CCN(C)CC3)CC2)ccc1Nc1ncc(Cl)c(Nc2ccccc2S(=O)(=O)C(C)C)n1 [NVP-TAE684] + CC(=O)Nc1cccc(-n2c(=O)n(C3CC3)c(=O)c3c(Nc4ccc(I)cc4F)n(C)c(=O)c(C)c32)c1 [Trametinib] (partner 0.02 µM)
Procedure, shortened: as §1

Vandetanib + Pictilisib = compound: COc1cc2/c(=N/c3ccc(Br)cc3F)nc[nH]c2cc1OCC1CCN(C)CC1 [Vandetanib] + CS(=O)(=O)N1CCN(Cc2cc3nc(-c4cccc5[nH]ncc45)nc(N4CCOCC4)c3s2)CC1 [Pictilisib] (partner 1 µM)
Procedure, shortened: as §1

NVP-TAE684 + Pictilisib = compound: COc1cc(N2CCC(N3CCN(C)CC3)CC2)ccc1Nc1ncc(Cl)c(Nc2ccccc2S(=O)(=O)C(C)C)n1 [NVP-TAE684] + CS(=O)(=O)N1CCN(Cc2cc3nc(-c4cccc5[nH]ncc45)nc(N4CCOCC4)c3s2)CC1 [Pictilisib] (partner 1 µM)
Procedure, shortened: as §1

NVP-TAE684 + Olaparib = compound: COc1cc(N2CCC(N3CCN(C)CC3)CC2)ccc1Nc1ncc(Cl)c(Nc2ccccc2S(=O)(=O)C(C)C)n1 [NVP-TAE684] + O=C(c1cc(Cc2n[nH]c(=O)c3ccccc23)ccc1F)N1CCN(C(=O)C2CC2)CC1 [Olaparib] (partner 8 µM)
Procedure, shortened: as §1

| Cell Line | relative viability (NVP-TAE684 + OSI-027; first compound 0.2 µM) | relative viability (NVP-TAE684 + OSI-027; first compound 0.6325 µM) | relative viability (NVP-TAE684 + OSI-027; first compound 2 µM) | relative viability (NVP-TAE684 + Trametinib; first compound 0.2 µM) | relative viability (NVP-TAE684 + Trametinib; first compound 0.6325 µM) | relative viability (NVP-TAE684 + Trametinib; first compound 2 µM) | relative viability (Vandetanib + Pictilisib; first compound 0.02 µM) | relative viability (Vandetanib + Pictilisib; first compound 0.06325 µM) | relative viability (Vandetanib + Pictilisib; first compound 0.2 µM) | relative viability (Vandetanib + Pictilisib; first compound 0.6325 µM) | relative viability (Vandetanib + Pictilisib; first compound 2 µM) | relative viability (NVP-TAE684 + Pictilisib; first compound 0.2 µM) | relative viability (NVP-TAE684 + Pictilisib; first compound 0.6325 µM) | relative viability (NVP-TAE684 + Pictilisib; first compound 2 µM) | relative viability (NVP-TAE684 + Olaparib; first compound 0.2 µM) | relative viability (NVP-TAE684 + Olaparib; first compound 0.6325 µM) | relative viability (NVP-TAE684 + Olaparib; first compound 2 µM) |
| --- | --- | --- | --- | --- | --- | --- | --- | --- | --- | --- | --- | --- | --- | --- | --- | --- | --- |
| NCI-H3122 | 0.173 | 0.127 | 0.154 | 0.12 | 0.148 | 0.0944 | 0.668 | 0.603 | 0.58 | 0.61 | 0.601 | 0.211 | 0.181 | 0.202 | 0.342 | 0.225 | 0.111 |
| NCI-H1651 | 0.692 | 0.79 | 0.295 | – | 0.86 | 0.771 | 0.621 | 0.519 | 0.478 | 0.528 | 0.374 | 0.366 | 0.629 | 0.402 | 0.181 | 0.186 | 0.173 |
| NCI-H1355 | 0.423 | 0.325 | 0.273 | 0.399 | 0.398 | 0.3 | 0.438 | 0.367 | 0.425 | 0.496 | 0.482 | 0.467 | 0.323 | 0.343 | 0.657 | 0.713 | 0.499 |
| NCI-H596 | 0.903 | 0.689 | 0.509 | 0.712 | 0.581 | 0.688 | 0.395 | 0.35 | 0.323 | 0.398 | 0.352 | 0.396 | 0.372 | 0.335 | 0.66 | 0.595 | 0.537 |
| NCI-H23 | 0.666 | 0.544 | 0.236 | 0.493 | 0.333 | 0.208 | 0.423 | 0.427 | 0.509 | 0.424 | 0.506 | 0.518 | 0.422 | 0.377 | 0.312 | 0.211 | 0.187 |
| HCC-366 | 1.15 | 0.772 | 0.401 | 0.352 | 0.374 | 0.14 | 0.146 | 0.141 | 0.202 | 0.112 | 0.112 | 0.0975 | 0.105 | 0.113 | 0.352 | 0.326 | 0.288 |
| NCI-H2126 | 0.603 | 0.631 | 0.493 | 0.628 | 0.637 | 0.388 | 0.461 | 0.46 | 0.468 | 0.418 | 0.481 | 0.491 | 0.501 | 0.428 | 0.88 | – | 0.712 |
| LU99A | 0.319 | 0.265 | 0.239 | 0.579 | 0.616 | 0.349 | 0.304 | 0.327 | 0.336 | 0.29 | 0.306 | 0.288 | 0.362 | 0.249 | 0.283 | 0.266 | 0.24 |
